Reference: patent publication US7238685B2, “Benzo-fused heterocycles as endothelin antagonists” (Actelion Pharmaceuticals Ltd., priority 2001, dated 2007)
Where two headings read alike, the source gives them in different places.

Key:
[1] = biological target: T1, human recombinant ETA receptors (Homo sapiens, UniProt P25101); test: Inhibition of endothelin binding to membranes from CHO cells carrying human ET receptors (ETA)
T1 construct: expressed in transfected cells; host or cells: CHO cells (microsomal membranes)
T1 sequence (P25101 21-427): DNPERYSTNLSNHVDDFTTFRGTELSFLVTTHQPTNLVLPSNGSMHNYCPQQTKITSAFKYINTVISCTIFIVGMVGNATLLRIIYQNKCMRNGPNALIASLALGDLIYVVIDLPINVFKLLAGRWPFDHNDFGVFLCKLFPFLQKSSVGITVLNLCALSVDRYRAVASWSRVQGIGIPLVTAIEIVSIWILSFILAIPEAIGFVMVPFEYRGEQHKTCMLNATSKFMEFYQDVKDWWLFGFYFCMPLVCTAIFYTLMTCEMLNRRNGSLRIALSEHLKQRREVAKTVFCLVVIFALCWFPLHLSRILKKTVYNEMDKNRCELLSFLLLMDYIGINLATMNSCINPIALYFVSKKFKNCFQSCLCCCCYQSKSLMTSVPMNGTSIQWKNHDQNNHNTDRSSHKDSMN

[2] = biological target: T2, human recombinant ETB receptors (Homo sapiens, UniProt P24530); test: Inhibition of endothelin binding to membranes from CHO cells carrying human ET receptors (ETB)
T2 construct: expressed in transfected cells; host or cells: CHO cells (microsomal membranes)
T2 sequence (P24530 27-442): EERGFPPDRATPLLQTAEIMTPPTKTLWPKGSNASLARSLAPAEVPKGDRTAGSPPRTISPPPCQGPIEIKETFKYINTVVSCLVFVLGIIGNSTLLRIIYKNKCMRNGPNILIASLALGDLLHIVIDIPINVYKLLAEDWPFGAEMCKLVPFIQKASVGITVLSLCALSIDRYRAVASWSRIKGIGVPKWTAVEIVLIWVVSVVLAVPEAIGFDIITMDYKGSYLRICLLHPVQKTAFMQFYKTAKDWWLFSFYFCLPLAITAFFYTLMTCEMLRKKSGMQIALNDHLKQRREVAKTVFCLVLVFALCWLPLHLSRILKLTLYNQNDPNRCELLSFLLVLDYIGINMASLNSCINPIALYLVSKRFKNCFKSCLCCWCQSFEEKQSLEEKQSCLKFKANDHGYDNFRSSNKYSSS

[3] = biological target: T3, rat aortic rings (ETA receptors) (Rattus norvegicus, UniProt P26684); test: Inhibition of endothelin-1-induced contractions on isolated rat aortic rings; conditions: read-out: pA2 (aortic rings) (converted)
T3 construct: from tissue; host or cells: thoracic aorta rings of adult Wistar rats, endothelium removed
T3 sequence (P26684 21-426): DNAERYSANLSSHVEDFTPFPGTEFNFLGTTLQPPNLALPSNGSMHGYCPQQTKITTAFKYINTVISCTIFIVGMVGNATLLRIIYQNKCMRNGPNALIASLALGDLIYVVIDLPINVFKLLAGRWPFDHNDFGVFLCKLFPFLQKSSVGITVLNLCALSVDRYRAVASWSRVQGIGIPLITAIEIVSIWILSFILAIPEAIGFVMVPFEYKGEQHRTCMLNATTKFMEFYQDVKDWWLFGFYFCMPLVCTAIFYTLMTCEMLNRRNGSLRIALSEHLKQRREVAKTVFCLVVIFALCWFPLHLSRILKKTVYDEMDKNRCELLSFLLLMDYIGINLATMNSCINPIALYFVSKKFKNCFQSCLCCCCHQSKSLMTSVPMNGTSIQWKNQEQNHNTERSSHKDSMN
Description: The functional inhibitory potency of the endothelin antagonists was assessed by their inhibition of the contraction induced by endothelin-1 on rat aortic rings (ETA receptors) and of the contraction induced by sarafotoxin S6c on rat tracheal rings (ETB receptors). Adult Wistar rats were anesthetized and exsanguinated. The thoracic aorta or trachea were excised, dissected and cut in 3–5 mm rings. The endothelium/epithelium was removed by gentle rubbing of the intimal surface. Each ring was suspended in a 10 ml isolated organ bath filled with Krebs-Henseleit solution (in mM; NaCl 115, KCl 4.7, MgSO4 1.2, KH2PO4 1.5, NaHCO3 25, CaCl2 2.5, glucose 10) kept at 37° C. and gassed with 95% O2 and 5% CO2. The rings were connected to force transducers and isometric tension was recorded (EMKA Technologies SA, Paris, France). The rings were stretched to a resting tension of 3 g (aorta) or 2 g (trachea). […] The functional inhibitory potency of the test compound was assessed by calculating the concentration ratio, i.e. the shift to the right of the EC50 induced by different concentrations of test compound. EC50 is the concentration of endothelin needed to get a half-maximal contraction, pA2 is the negative logarithm of the antagonist concentration which induces a two-fold shift in the EC50 value.

| SMILES | IC50 [1] [nM] | IC50 [2] [nM] | IC50 ([1]; read-out: IC50 ETA) [nM] | IC50 ([2]; read-out: IC50 ETB) [nM] | Kb [3] [nM] |
| --- | --- | --- | --- | --- | --- |
| Cc1cc(C)nc(O[C@H](C(=O)O)[C@@]2(c3ccccc3)NCc3nnc(CC(=O)O)n3-c3ccccc32)n1 (racemic) [Example 27, (±)-(S*)-((6S*)-1-carboxymethyl-6-phenyl-5,6-dihydro-4H-2,3,5,10b-tetraaza-benzo[e]azulen-6-yl)-(4,6-dimethyl-pyrimidin-2-yloxy)-acetic acid] | 13 | 126 | – | – | – |
| COc1cc(OC)nc(O[C@H](C(=O)O)[C@@]2(c3ccccc3)NCC(=O)N(C)c3ccccc32)n1 (racemic) [Example 39, (±)-(S*)-((5S*)-1-methyl-2-oxo-5-phenyl-2,3,4,5-tetrahydro-1H-benzo[e][1,4]di-azepin-5-yl)-(4,6-dimethoxy-pyrimidin-2-yloxy)-acetic acid] | – | – | 29 | 701 | – |
| COc1cc(CN2C(=O)CN[C@](c3ccccc3)([C@H](Oc3nc(OC)cc(OC)n3)C(=O)O)c3ccccc32)cc(OC)c1 (racemic) [Example 40, (±)-(S*)-[(5S*)-1-(3,5-dimethoxy-benzyl)-2-oxo-5-phenyl-2,3,4,5-tetrahydro-1H-benzo[e][1,4]diazepin-5-yl]-(4,6-dimethoxy-pyrimidin-2-yloxy)-acetic acid] | – | – | 8 | 52 | – |
| Cc1cc(C)nc(O[C@H](C(=O)O)[C@@]2(c3ccccc3)NCC(=O)N(C)c3ccccc32)n1 (racemic) [Example 49, (±)-(S*)-(4,6-dimethyl-pyrimidin-2-yloxy)-((5S*)-1-methyl-2-oxo-5-phenyl-2,3,4,5-tetrahydro-1H-benzo[e][1,4]diazepin-5-yl)-acetic acid] | – | – | 17 | 240 | – |
| Cc1cc(C)nc(O[C@H](C(=O)O)[C@@]2(c3ccccc3)NCC(=O)N(CC(=O)O)c3ccccc32)n1 (racemic) [Example 50, (±)-(S*)-((5S*)-1-Carboxymethyl-2-oxo-5-phenyl-2,3,4,5-tetrahydro-1H-benzo[e][1,4]diazepin-5-yl)-(4,6-dimethyl-pyrimidin-2-yloxy)-acetoc acid] | – | – | 12 | 507 | – |
| COc1cc(CN2C(=O)CN[C@](c3ccccc3)([C@H](Oc3nc(C)cc(C)n3)C(=O)O)c3ccccc32)cc(OC)c1 (racemic) [Example 51, (±)-(S*)-[(5S*)-1-(3,5-Dimethoxy-benzyl)-2-oxo-5-phenyl-2,3,4,5-tetra-hydro-1H-benzo[e][1,4]diazepin-5-yl]-(4,6-dimethyl-pyrimidin-2-yloxy)-acetic acid] | – | – | 7 | 26 | 40.7 |
| Cc1cc(C)nc(O[C@H](C(=O)O)[C@@]2(c3ccccc3)NCC(=O)N(CCO)c3ccccc32)n1 (racemic) [Example 56, (±)-(S*)-(4,6-Dimethyl-pyrimidin-2-yloxy)-[(5S*)-1-(2-hydroxy-ethyl)-2-oxo-5-phenyl-2,3,4,5-tetrahydro-1H-benzo[e][1,4]diazepin-5-yl]-acetic acid] | 4 | 83 | – | – | – |
| COC(=O)c1ccc(CN2C(=O)CN[C@](c3ccccc3)([C@H](Oc3nc(C)cc(C)n3)C(=O)O)c3ccccc32)cc1 (racemic) [Example 58, (±)-4-{(5S*)-5-[(S*)-Carboxy-(4,6-dimethyl-pyrimidin-2-yloxy)-methyl]-2-oxo-5-phenyl-2,3,4,5-tetrahydro-benzo[e][1,4]diazepin-1-ylmethyl}-benzoic acid methyl ester] | – | – | 2 | 29 | – |
| Cc1cc(C)nc(O[C@H](C(=O)O)[C@@]2(c3ccccc3)NCC(=O)N(CCc3cn(C)c4ccccc34)c3ccccc32)n1 (racemic) [Example 68] | – | – | 1 | 4 | – |
| Cc1cc(C)nc(O[C@H](C(=O)O)[C@@]2(c3ccccc3)NCC(=O)N(CCc3ccccc3)c3ccccc32)n1 (racemic) [Example 78] | – | – | 3 | 23 | – |
| Cc1cc(C)c(CN2C(=O)CN[C@](c3ccccc3)([C@H](Oc3nc(C)cc(C)n3)C(=O)O)c3ccccc32)c(C)c1 (racemic) [Example 111] | – | – | 3 | 10 | – |
| Cc1cc(C)nc(O[C@H](C(=O)O)[C@@]2(c3ccccc3)NCC(=O)N(c3ccccc3)c3ccccc32)n1 (racemic) [Example 117, (±)-(S*)-(4,6-dimethyl-pyrimidin-2-yloxy)-[(5S*)-2-oxo-1,5-diphenyl-2,3,4,5-tetrahydro-1H-benzo[e][1,4]diazepin-5-yl]-acetic acid] | – | – | 61 | 749 | – |
| Cc1cc(C)nc(O[C@H](C(=O)O)[C@]2(c3ccccc3)c3ccccc3N(Cc3c(F)cc(F)cc3F)C(=O)CN2C)n1 (racemic) [Example 129, (±)-(S*)-(4,6-Dimethyl-pyrimidin-2-yloxy)-[(5S*)-4-methyl-2-oxo-5-phenyl-1-(2,4,6-trifluoro-benzyl)-2,3,4,5-tetrahydro-1H-benzo[e][1,4]diazepin-5-yl]-acetic acid] | – | – | 6 | 353 | – |
| COc1cc(OC)nc(O[C@H](C(=O)O)[C@@]2(c3ccccc3)NCC(=O)N(C)c3ccc(Cl)cc32)n1 (racemic) [Example 166, (±)-(1S*)-((5S*)-7-Chloro-1-methyl-2-oxo-5-phenyl-2,3,4,5-tetrahydro-1H-benzo[e][1,4]diazepin-5-yl)-(4,6-dimethoxy-pyrimidin-2-yloxy)-acetic acid] | – | – | – | – | 105 |
| COc1cc(CN2C(=O)CN[C@](c3ccccc3)([C@H](Oc3nc(OC)cc(OC)n3)C(=O)O)c3cc(Cl)ccc32)cc(OC)c1 (racemic) [Example 167, (±)-(1S*)-[(5S*)-7-Chloro-1-(3,5-dimethoxy-benzyl)-2-oxo-5-phenyl-2,3,4,5-tetrahydro-1H-benzo[e][1,4]diazepin-5-yl]-(4,6-dimethoxy-pyrimidin-2-yloxy)-acetic acid] | – | – | 36 | 947 | – |
| Cc1cc(C)nc(O[C@H](C(=O)O)[C@@]2(c3ccccc3)NCC(=O)N(C)c3ccc(Cl)cc32)n1 (racemic) [Example 170, (±)-(1S*)-((5S*)-7-Chloro-1-methyl-2-oxo-5-phenyl-2,3,4,5-tetra-hydro-1H-benzo[e][1,4]diazepin-5-yl)-(4,6-dimethyl-pyrimidin-2-yloxy)-acetic acid] | – | – | 15 | 368 | – |
| Cc1cccc([C@]2([C@H](Oc3nc(C)cc(C)n3)C(=O)O)NCC(=O)N(C)c3ccccc32)c1 (racemic) [Example 187, (±)-(S*)-(4,6-Dimethyl-pyrimidin-2-yloxy)-[(5S*)-1-methyl-2-oxo-5-m-tolyl-2,3,4,5-tetrahydro-1H-benzo[e][1,4]diazepin-5-yl]-acetic acid] | – | – | 18 | 180 | – |
| Cc1cc(C)nc(O[C@H](C(=O)O)[C@@]2(c3cccc(-c4ccccc4)c3)NCC(=O)N(Cc3c(F)ccc(F)c3F)c3ccccc32)n1 (racemic) [Example 213] | – | – | 3 | 29 | – |
| COc1ccc(CN2C(=O)CN[C@](c3ccc(F)c(C)c3)([C@H](Oc3nc(C)cc(C)n3)C(=O)O)c3ccccc32)cc1 (racemic) [Example 218, (±)-(S*)-(4,6-Dimethyl-pyrimidin-2-yloxy)-[(5S*)-5-(4-fluoro-3-methyl-phenyl)-1-(4-methoxy-benzyl)-2-oxo-2,3,4,5-tetrahydro-1H-benzo[e][1,4]diazepin-5-yl]-acetic acid] | – | – | 5 | 39 | – |
| CCCCc1ccc(CN2C(=O)CN[C@](c3cccc(CCCC)c3)([C@H](Oc3nc(C)cc(C)n3)C(=O)O)c3ccccc32)cc1 (racemic) [Example 223] | – | – | 7 | 12 | – |
| COC(=O)[C@@H](c1ccccc1)N1C(=O)CN[C@](c2ccccc2)([C@H](Oc2nc(C)cc(C)n2)C(=O)O)c2ccccc21 (relative stereo) [Example 52, (±)-(S*)-(4,6-Dimethyl-pyrimidin-2-yloxy)-[(5S*)-1-((R/S)-methoxycarbonyl-phenyl-methyl)-2-oxo-5-phenyl-2,3,4,5-tetrahydro-1H-benzo[e][1,4]diazepin-5-yl]-acetic acid] | – | – | 11 | 23 | – |
